Read-outs that look alike come from different tables or passages of the source. *1 amine or outer side, *2 acyl side, *3 side chain or, on linkers, in order; H or OH if unused. Where a SMILES comes first, the peptide text is derived from it. Side-chain parts run from the residue outwards. The star is where a group is joined. C20 diacid = O=C(O)CCCCCCCCCCCCCCCCCCC(=O)*; C18 diacid = O=C(O)CCCCCCCCCCCCCCCCC(=O)*; γGlu = O=C(O)[C@H](CCC(=O)[*:2])N[*:1]; Trx = NC[C@H]1CC[C@H](C(=O)O)CC1; AEEA = NCCOCCOCC(=O)O
What was measured:
in vivo = settings: Göttingen, minipig
Method in brief: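 Catheterised mini-pigs received compound i.v. at 10 nmol/kg in pH 4.0 phosphate/NaCl/tween vehicle, or alternatively i.v. or s.c. at 1–30 nmol/kg in pH 8.0 K2HPO4/tween. Stabilised plasma was sampled up to 13 days and assayed by LC-MS (LLOQ 2 nM). Half-life came from non-compartmental analysis of individual animal profiles.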

Y4 receptor = molecular target: T1, Y4 receptor (Homo sapiens, UniProt P50391); assay: Y4 receptor ACTOne based FLIPR assay (cAMP biosensor); assay type: cell-based
T1 construct: host or cells: ACTOne HEK-293 cells
Excerpt: ACTOne™ is an easily scaleable cAMP biosensor HTS platform for measurement of Gs and Gi coupled 7™ receptor signalling from BD Biosciences (San Jose, Calif.). The cells express a biosensor developed around a modified rat olfactory cyclic nucleotide gated (CNG) calcium channel—a fairly non-discriminatory ion channel that responds to cAMP and cGMP. The CNG has been engineered to be cAMP selective and thus function as a cAMP responsive biosensor that signals through calcium or membrane potential responsive dyes. Y2 or Y4 receptor expressing ACTOne HEK-293 cells are obtained from BD Biosciences. The cells are loaded with a calcium responsive dye that only distributes in the cytoplasm. Probenecid, an inhibitor of the organic anion transporter is added to prevent the dye from leaving the cell. A phosphodiesterase inhibitor is added to prevent formatted cAMP from being degraded. Isoproterenol (an β1/β2 agonist) is added to activate the adenylate cyclase. When an Y2 or Y4 receptor agonist is added, the adenylate cyclase is inactivated. The decreased calcium concentration in the cytoplasm is then detected as an increase in fluorescence. Together with the test substance, Isoproterenol at a concentration matching EC80, is added to all wells. • The cells are plated out in Greiner 384-well plates. […] The plates are covered with tinfoil to avoid light (the dye can be excited by the daylight, which results in higher baseline and variation). • The FLIPR (FLIPRtetra from Molecular Devices, CA, USA) adds 1 μl sample and 1 μl isoproterenol (0.05 μM final concentration) at the same time. • The fluorescence signal from the wells is measured 330 seconds after sample addition on the FLIPR.

Y2 receptor = molecular target: T2, Y2 receptor (Homo sapiens, UniProt P49146); assay: Y2 receptor ACTOne based FLIPR assay (cAMP biosensor); assay type: cell-based
T2 construct: host or cells: ACTOne HEK-293 cells
T2 sequence (P49146 1-381): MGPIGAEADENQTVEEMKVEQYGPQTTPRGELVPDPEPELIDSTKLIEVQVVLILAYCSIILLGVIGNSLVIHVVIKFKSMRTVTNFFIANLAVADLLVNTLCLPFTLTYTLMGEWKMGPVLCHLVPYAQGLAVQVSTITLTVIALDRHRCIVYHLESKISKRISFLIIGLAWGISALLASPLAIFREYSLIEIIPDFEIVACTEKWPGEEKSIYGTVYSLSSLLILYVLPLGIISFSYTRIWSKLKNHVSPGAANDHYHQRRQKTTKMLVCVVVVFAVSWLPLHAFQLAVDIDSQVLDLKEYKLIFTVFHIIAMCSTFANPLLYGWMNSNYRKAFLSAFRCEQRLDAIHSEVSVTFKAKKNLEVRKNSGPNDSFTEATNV

[1] = Table 2, PP analogues, ACTOne HEK-293 cells, read-out: Y4 cAMP EC50
[2] = Table 2, PP analogues, ACTOne HEK-293 cells, read-out: Y2 cAMP EC50

T1 sequence (P50391 whole entry): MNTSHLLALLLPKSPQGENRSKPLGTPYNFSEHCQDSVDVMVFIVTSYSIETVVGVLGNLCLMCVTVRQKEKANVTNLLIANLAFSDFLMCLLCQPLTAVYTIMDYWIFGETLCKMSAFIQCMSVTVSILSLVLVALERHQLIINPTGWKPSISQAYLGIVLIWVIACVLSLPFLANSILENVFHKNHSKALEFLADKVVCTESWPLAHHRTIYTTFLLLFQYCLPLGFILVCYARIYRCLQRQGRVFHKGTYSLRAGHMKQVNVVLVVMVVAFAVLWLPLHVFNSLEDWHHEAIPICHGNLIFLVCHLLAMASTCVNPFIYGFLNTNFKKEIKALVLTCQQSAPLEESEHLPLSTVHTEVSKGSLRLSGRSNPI

EC50 (Y4 receptor; [1]) [µM] | EC50 (Y2 receptor; [2]) [µM] | SMILES | EC50 (Y4 receptor) [µM] | EC50 (Y2 receptor) [µM] | also measured
> 1 | > 1 | CC[C@H](C)[C@H](NC(=O)[C@H](Cc1ccc(O)cc1)NC(=O)[C@H](CCCNC(=N)N)NC(=O)[C@H](CCCNC(=N)N)NC(=O)[C@H](CC(C)C)NC(=O)[C@H](CC(=O)O)NC(=O)[C@H](C)NC(=O)[C@H](C)NC(=O)[C@H](Cc1ccc(O)cc1)NC(=O)[C@H](CCC(N)=O)NC(=O)[C@H](C)NC(=O)[C@H](CC(C)C)NC(=O)[C@H](CCC(N)=O)NC(=O)[C@H](CCC(=O)O)NC(=O)[C@@H]1CCCN1C(=O)[C@@H](NC(=O)[C@H](C)NC(=O)[C@H](CC(N)=O)NC(=O)[C@H](CC(=O)O)NC(=O)CNC(=O)[C@@H]1CCCN1C(=O)[C@H](Cc1ccc(O)cc1)NC(=O)[C@@H](NC(=O)[C@@H]1CCCN1C(=O)[C@H](CCC(=O)O)NC(=O)[C@H](CC(C)C)NC(=O)[C@@H]1CCCN1)C(C)C)[C@@H](C)O)C(=O)N[C@@H](CC(N)=O)C(=O)N[C@@H](CC(C)C)C(=O)N[C@@H](CC(C)C)C(=O)N[C@H](C(=O)N[C@@H](CCCCNC(=O)COCCOCCNC(=O)COCCOCCNC(=O)CC[C@H](NC(=O)CCCCCCCCCCCCCCCCC(=O)O)C(=O)O)C(=O)N1CCC[C@H]1C(=O)N[C@@H](CCCNC(=N)N)C(=O)N[C@@H](Cc1ccc(O)cc1)C(N)=O)[C@@H](C)O [SEQ ID NO: 41, N-epsilon33-[2-(2-{2-[2-(2-{2-[(S)-4-Carboxy-4-(17-carboxyheptadecanoylamino)butyrylamino]ethoxy}ethoxy)acetylamino]-ethoxy}ethoxy)acetyl][Leu17,Leu30,Lys33]hPP2-36] (H-PLEPVYPGDNATPEQLAQYAADLRRYINLLTK([AEEA-AEEA-γGlu-C18 diacid])PRY-NH2) |  |  | half-life (in vivo; iv, […]): 105 h; half-life (in vivo; male, sc, […]): 93 h
 |  | CC[C@H](C)[C@H](NC(=O)[C@H](Cc1ccc(O)cc1)NC(=O)[C@H](CCCNC(=N)N)NC(=O)[C@H](CCCNC(=N)N)NC(=O)[C@H](CC(C)C)NC(=O)[C@H](CC(=O)O)NC(=O)[C@H](C)NC(=O)[C@H](C)NC(=O)[C@H](Cc1ccc(O)cc1)NC(=O)[C@H](CCC(N)=O)NC(=O)[C@H](C)NC(=O)[C@H](CC(C)C)NC(=O)[C@H](CCC(N)=O)NC(=O)[C@H](CCC(=O)O)NC(=O)[C@@H]1CCCN1C(=O)[C@@H](NC(=O)[C@H](C)NC(=O)[C@H](CC(N)=O)NC(=O)[C@H](CC(=O)O)NC(=O)CNC(=O)[C@@H]1CCCN1C(=O)[C@H](Cc1ccc(O)cc1)NC(=O)[C@@H](NC(=O)[C@@H]1CCCN1C(=O)[C@H](CCC(=O)O)NC(=O)[C@H](CC(C)C)NC(=O)[C@@H]1CCCN1)C(C)C)[C@@H](C)O)C(=O)N[C@@H](CC(N)=O)C(=O)N[C@@H](CC(C)C)C(=O)N[C@@H](CC(C)C)C(=O)N[C@H](C(=O)N[C@@H](CCCCNC(=O)COCCOCCNC(=O)COCCOCCNC(=O)CC[C@H](NC(=O)[C@H]1CC[C@H](CNC(=O)CCCCCCCCCCCCCCCCCCC(=O)O)CC1)C(=O)O)C(=O)N1CCC[C@H]1C(=O)N[C@@H](CCCNC(=N)N)C(=O)N[C@@H](Cc1ccc(O)cc1)C(N)=O)[C@@H](C)O [SEQ ID NO: 42, N-epsilon33-[2-(2-{2-[2-(2-{2-[(S)-4-Carboxy-4-({trans-4-[(19-carboxynonadecanoylamino)methyl]cyclohexanecarbonyl}amino)butyrylamino]-ethoxy}ethoxy)acetylamino]ethoxy}ethoxy)acetyl][Leu17,Leu30,Lys33]hPP2-36] (H-PLEPVYPGDNATPEQLAQYAADLRRYINLLTK([AEEA-AEEA-γGlu-Trx-C20 diacid])PRY-NH2) | > 1 | > 1 | half-life (in vivo; in vivo, iv, 7 nmol/kg): 116 h; half-life (in vivo; male, in vivo, sc, 7 nmol/kg): 167 h
> 0.89 | > 1 | CC[C@H](C)[C@H](NC(=O)[C@H](Cc1ccc(O)cc1)NC(=O)[C@H](CCCNC(=N)N)NC(=O)[C@H](CCCNC(=N)N)NC(=O)[C@H](CC(C)C)NC(=O)[C@H](CC(=O)O)NC(=O)[C@H](C)NC(=O)[C@H](C)NC(=O)[C@H](Cc1ccc(O)cc1)NC(=O)[C@H](CCC(N)=O)NC(=O)[C@H](C)NC(=O)[C@H](CC(C)C)NC(=O)[C@H](CCC(N)=O)NC(=O)[C@H](CCC(=O)O)NC(=O)[C@@H]1CCCN1C(=O)[C@@H](NC(=O)[C@H](C)NC(=O)[C@H](CC(N)=O)NC(=O)[C@H](CC(=O)O)NC(=O)CNC(=O)[C@@H]1CCCN1C(=O)[C@H](Cc1ccc(O)cc1)NC(=O)[C@@H](NC(=O)[C@@H]1CCCN1C(=O)[C@H](CCC(=O)O)NC(=O)[C@H](CC(C)C)NC(=O)[C@@H]1CCCN1)C(C)C)[C@@H](C)O)C(=O)N[C@@H](CCCCNC(=O)COCCOCCNC(=O)COCCOCCNC(=O)CC[C@H](NC(=O)[C@H]1CC[C@H](CNC(=O)CCCCCCCCCCCCCCCCCCC(=O)O)CC1)C(=O)O)C(=O)N[C@@H](CC(C)C)C(=O)N[C@@H](CC(C)C)C(=O)N[C@H](C(=O)N[C@@H](CCCNC(=N)N)C(=O)N1CCC[C@H]1C(=O)N[C@@H](CCCNC(=N)N)C(=O)N[C@@H](Cc1ccc(O)cc1)C(N)=O)[C@@H](C)O [SEQ ID NO: 44, N-epsilon29-[2-(2-{2-[2-(2-{2-[(S)-4-Carboxy-4-({trans-4-[(19-carboxynonadecanoylamino)methyl]cyclohexanecarbonyl}amino)butyrylamino]-ethoxy}ethoxy)acetylamino]ethoxy}ethoxy)acetyl][Leu17,Lys29,Leu30]hPP2-36] (H-PLEPVYPGDNATPEQLAQYAADLRRYIK([AEEA-AEEA-γGlu-Trx-C20 diacid])LLTRPRY-NH2) |  |  | half-life (in vivo; iv, 4 nmol/kg): 74 h; half-life (in vivo; male, sc, 4 nmol/kg): 93 h
 |  | CC[C@H](C)[C@H](NC(=O)[C@H](Cc1ccc(O)cc1)NC(=O)[C@H](CCCCNC(=O)COCCOCCNC(=O)COCCOCCNC(=O)CC[C@H](NC(=O)[C@H]1CC[C@H](CNC(=O)CCCCCCCCCCCCCCCCCCC(=O)O)CC1)C(=O)O)NC(=O)[C@H](CCCNC(=N)N)NC(=O)[C@H](CC(C)C)NC(=O)[C@H](CC(=O)O)NC(=O)[C@H](C)NC(=O)[C@H](C)NC(=O)[C@H](Cc1ccc(O)cc1)NC(=O)[C@H](CCC(N)=O)NC(=O)[C@H](C)NC(=O)[C@H](CC(C)C)NC(=O)[C@H](CCC(N)=O)NC(=O)[C@H](CCC(=O)O)NC(=O)[C@@H]1CCCN1C(=O)[C@@H](NC(=O)[C@H](C)NC(=O)[C@H](CC(N)=O)NC(=O)[C@H](CC(=O)O)NC(=O)CNC(=O)[C@@H]1CCCN1C(=O)[C@H](Cc1ccc(O)cc1)NC(=O)[C@@H](NC(=O)[C@@H]1CCCN1C(=O)[C@H](CCC(=O)O)NC(=O)[C@H](CC(C)C)NC(=O)[C@@H]1CCCN1)C(C)C)[C@@H](C)O)C(=O)N[C@@H](CC(N)=O)C(=O)N[C@@H](CC(C)C)C(=O)N[C@@H](CC(C)C)C(=O)N[C@H](C(=O)N[C@@H](CCCNC(=N)N)C(=O)N1CCC[C@H]1C(=O)N[C@@H](CCCNC(=N)N)C(=O)N[C@@H](Cc1ccc(O)cc1)C(N)=O)[C@@H](C)O [SEQ ID NO: 45, N-epsilon26-[2-(2-{2-[2-(2-{2-[(S)-4-Carboxy-4-({trans-4-[(19-carboxynonadecanoylamino)methyl]cyclohexanecarbonyl}amino)butyrylamino]-ethoxy}ethoxy)acetylamino]ethoxy}ethoxy)acetyl][Leu17,Lys26,Leu30]hPP2-36] (H-PLEPVYPGDNATPEQLAQYAADLRK([AEEA-AEEA-γGlu-Trx-C20 diacid])YINLLTRPRY-NH2; N-terminus and C-terminus assumed) | 0.007 | > 1 | half-life (in vivo; in vivo, iv, 4 nmol/kg): 58 h

From patent publication US20110275559A1, “Long-Acting Y2 and/or Y4 Receptor Agonists” (Novo Nordisk A/S, priority 2008, published 2011)
